From patent publication US5661182A, “Method for lowering oxygen affinity of hemoglobin in redcell suspensions, in whole blood and in vivo” (Virginia Commonwealth University, priority 1995, dated 1997)
Entries after “also recorded” stand apart in the source; their conditions may differ.

Tests used:
[1] = biological target: hemoglobin in human red blood cells (Homo sapiens, UniProt P68871+P69905); experiment: Calculated oxygen delivery index of human red blood cell suspensions (ΔY); assay type: cell-based; conditions: human RBC, effector 0.5 mM
From the text: (§1) L3,5 and L3,4,5 were provided by Dr. Lalezari (Montefiore Hospital, New York); RSR-4 [2-[4-[[(3,5-dichloroanilino)carbonyl]methyl]phenoxy]-2-methylpropionic acid]and RSR13 [2-4-[[(3,5- dimethylanilino)carbonyl]methyl]phenoxy]-2-methylpropionic acid] have been synthesized following the procedure described in Randad et al. (J. Med. Chem. 34,752 (1991)). Human serum albumin (HSA), bovine serum albumin (BSA) and 4,4'diisothiocyanatostilbene-2,2'-disulfonate (DIDS) were purchased from Sigma (St. Louis, Mo.). Due to their low solubility in aqueous buffer, 10 mM stock solutions of the compounds were prepared in a slight exccess of sodium bicarbonate and back-titrated to pH 7.4. For example, RSR-4 or RSR-13 was dissolved at 60° C. in a 140 mM NaCl and 50 mM bis-Tris buffer at room temperature upon progressive addition of NaHCO3 to obtain 10 mM stock solutions. The pH was carefully adjusted to 7.4 after complete solubilization and before use of the solutions. Fresh solutions were prepared each week. Stock solutions of DIDS (1 mM) were prepared, in the dark, on the day of the experiments in a pH 7.4 buffer. Human serum albumin (defatted HSA) and bovine serum albumin (BSA) were prepared freshly as 1 mM stock solutions, pH 7.4. Equilibrium Measurements. The allosteric modulation of the effectors on freshly prepared solutions of hemoglobin or red cell suspensions was measured by the change in p50, the partial pressure of oxygen for half-saturation. Oxygen equilibrium curves (OEC) were carried out with the Hemox analyzer (TCS, Southampton, Pa.) under the following conditions: pH 7.4, 140 mM NaCl and 50 mM bis-Tris buffer at 37° C. In all experiments, the concentration of hemoglobin in the red cell suspensions was 20-25 μM hemoglobin tetramer (Hb4) as measured by Drabkin's method (cyanomethemoglobin) at the end of each recording. The final concentration of the allosteric effector in the cuvette was 0.5 mM, resulting in an effector/Hb4 ratio of 20 in the absence of albumin. OEC were also made in the same buffer containing 12.5, 25, 50, and 100 μM HSA (for human red cell suspensions) or BSA (for bovine cell suspensions). The serum albumin experiments were carried out with traces of an antifoaming agent. This agent has no deleterious effect on the red cell suspensions. The molar ratio of albumin to tetrameric hemoglobin was varied from 0.5 (at 12.5 μM HSA) to 4 (at 100 μM HSA); in whole blood this ratio is approximately 0.3 (0.7 mM albumin plus plasma proteins/2.25 mM Hb4). Therefore, the concentration of albumin used in the present studies was always larger relative to tetrameric hemoglobin than that found in whole blood.
In FIG. 2, curve (1) is the control, curve (2) is the suspension plus 0.5 mM RSR-4, curve (3) is the suspension plus 0.5 mM RSR-4 plus 50 μM HSA, and curve […] is the suspension plus 0.5 mM RSR-4 plus 100 μM HSA. The concentration ratios of albumin/Hb are above those found in vivo. For example, in curve (3) serum albumin is about six times and in curve (4) about twelve times in excess above the concentration ratio of albumin/Hb found in vivo. The vertical lines indicate the physiological pO2 values in the arterial blood (90 mmHg) and in the mixed venous blood (40 mmHg). The change in oxygen saturation between these two lines allows an estimation of the capability of the red blood cells to deliver oxygen to tissues (ΔY (%), as discussed below in conjunction with Table 4).
In Vivo Estimates for Percent of Oxygen Delivery. Table 4 presents the calculated oxygen delivery index for red blood cell suspensions in the presence or absence of 0.5 mM L3,5 or RSR-4. The experimental conditions for the experiments of Table 4 were the same as those used for Table 1. The oxygen delivery index was calculated from the experimental oxygen binding curves as the difference in hemoglobin oxygen saturation (percent) corresponding to the pO2 in the arterial blood (90 mmHg) and that in the mixed venous blood (40 mMHg). […]

[2] = system: purified Hb Yakima; experiment: Effect on purified Hb Yakima; assay type: biochemical, human
[3] = biological target: HbA (normal adult hemoglobin) (Homo sapiens, UniProt P68871+P69905); experiment: Oxygen equilibrium of isolated human Hb solutions (HbA p50); assay type: biochemical; conditions: human Hb solution; for p50 shift at increasing chloride concentration: 0.5 mM, chloride 0-400 mM; for HbA(p50): effector 0.5 mM, pH 7.2, 100 mM NaCl, 25 °C
From the text: as §1
Bovine Red Cell Studies. […]

[4] = system: human red cells; experiment: Hemolysis of human red cells in vitro; assay type: cell-based
[5] = biological target: hemoglobin in red cell suspensions (Homo sapiens, UniProt P68871+P69905); experiment: Allosteric effector activity in the presence of serum albumin in buffered red cell suspensions (FIG. 3); assay type: cell-based; conditions: for effector activity in the presence of serum albumin: FIG. 3, effector 0.5 mM (L3,4,5 0.25 mM)
From the text: as §1, with “OEC were also made in the same buffer containing 12.5, 25, 50, and 100 μM HSA (for human red cell suspensions) or BSA (for bovine cell suspensions). The serum albumin experiments were carried out with traces of an antifoaming agent. This agent has no deleterious effect on the red cell suspensions. The molar ratio of albumin to tetrameric hemoglobin was varied from 0.5 (at 12.5 μM HSA) to 4 (at 100 μM HSA); in whole blood this ratio is approximately 0.3 (0.7 mM albumin plus plasma proteins/2.25 mM Hb4). Therefore, the concentration of albumin used in the present studies was always larger relative to tetrameric hemoglobin than that found in whole blood.” left out

hemoglobin in human red blood cells, sequence (P69905 whole entry): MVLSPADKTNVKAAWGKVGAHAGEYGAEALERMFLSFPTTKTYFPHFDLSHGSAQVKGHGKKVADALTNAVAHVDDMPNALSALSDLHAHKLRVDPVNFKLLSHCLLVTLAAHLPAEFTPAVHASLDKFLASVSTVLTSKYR
hemoglobin in human red blood cells, sequence (P68871 whole entry): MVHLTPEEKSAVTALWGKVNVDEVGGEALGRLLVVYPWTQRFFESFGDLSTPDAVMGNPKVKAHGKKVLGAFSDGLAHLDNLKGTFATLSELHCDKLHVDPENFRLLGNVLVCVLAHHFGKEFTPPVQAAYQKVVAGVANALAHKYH
HbA (normal adult hemoglobin), sequence (P69905 whole entry): as the sequence (P69905 whole entry) above
HbA (normal adult hemoglobin), sequence (P68871 whole entry): as the sequence (P68871 whole entry) above
hemoglobin in red cell suspensions, sequence (P69905 whole entry): as the sequence (P69905 whole entry) above
hemoglobin in red cell suspensions, sequence (P68871 whole entry): as the sequence (P68871 whole entry) above

Compound	ΔY (oxygen delivery index) ([1]; 50 μM HSA) [%]	ΔY (oxygen delivery index) ([1]; 100 μM HSA) [%]	ΔY (oxygen delivery index) ([1]; no HSA) [%]	state of purified Hb Yakima in the presence of effector [2]	p50 shift at increasing chloride concentration [3]	HbA(p50) [3] [mmHg]	hemolysis [4]	effector activity in the presence of serum albumin [5]	allosteric effector activity ([5]; 0.5 mM effector, in the presence of 50 μM albumin)
CC(C)(Oc1ccc(NC(=O)Nc2cc(Cl)cc(Cl)c2)cc1)C(=O)O [L3,5, reference compound]	30	25	42	remains locked in the high-affinity R-state	identical at all chloride concentrations	47			
CC(C)(Oc1ccc(CC(=O)Nc2cc(Cl)cc(Cl)c2)cc1)C(=O)O [RSR-4, 2-[4-[[(3,5-dichloroanilino)carbonyl]methyl]phenoxy]-2-methylpropionic acid]	39	34	41.5	remains locked in the high-affinity R-state	identical at all chloride concentrations	35.5	No hemolysis	greater than L3,5 and L3,4,5 at all serum albumin/Hb ratios studied	
Cc1cc(C)cc(NC(=O)Cc2ccc(OC(C)(C)C(=O)O)cc2)c1 [RSR-13]								practically unaffected by serum albumin; also recorded: by far the least affected by serum albumin inhibition	greater than 90%
